Measurements from ChEMBL document CHEMBL5465560, “Selectivity Literature for EUbOPEN Chemogenomic Library” (2024).

Legend:
[1] = molecular target: Serine/threonine-protein kinase N1 (Homo sapiens, UniProt Q16512); assay: Selectivity interaction (KinomeScan (DiscoverX)) EUB0000666a PKN1; settings: at 10 µM
[2] = molecular target: STE20/SPS1-related proline-alanine-rich protein kinase (Homo sapiens) (UniProt Q9UEW8); assay: Selectivity interaction (Kinome Scan (DiscoverX)) EUB0000229b STK39; settings: at 10 µM
[3] = molecular target: CDK4/Cyclin D3 (Homo sapiens) (UniProt P11802+P30281); assay: (§1) Selectivity interaction (KinomeScan (DiscoverX)) EUB0001079a CDK4; assay type: protein-complex assay; settings: at 1 µM
[4] = molecular target: Cyclin-dependent kinase 4/cyclin D1 (Homo sapiens) (UniProt P11802+P24385); assay: as §1; assay type: protein-complex assay; settings: at 1 µM
[5] = molecular target: T1, Dual specificity tyrosine-phosphorylation-regulated kinase 1B (Homo sapiens, UniProt Q9Y463); assay: Selectivity interaction (KinomeScan (DiscoverX)) EUB0001550a DYRK1B; settings: at 1 µM
[6] = molecular target: Vascular endothelial growth factor receptor 2 (Homo sapiens, UniProt P35968); assay: Selectivity interaction (KinomeScan (DiscoverX)) EUB0000699a KDR; settings: at 10 µM
[7] = molecular target: Tyrosine-protein kinase ABL2 (Homo sapiens, UniProt P42684); assay: Selectivity interaction (ActivX KiNativ screen (kinase selectivity in THP-1 cell lysates)) EUB0000639a ABL2; assay type: subcellular; settings: lysate, at 1 µM
[8] = molecular target: Macrophage colony-stimulating factor 1 receptor (Homo sapiens) (UniProt P07333); assay: Selectivity interaction (Ambit KINOMEscan and KiNATiv profiling in Jurkat cells) EUB0000090b CSF1R; assay type: cell-based; settings: at 1 µM
[9] = molecular target: Ribosomal protein S6 kinase alpha-2 (Homo sapiens) (UniProt Q15349); assay: Selectivity interaction (Ambit KINOMEscan and KiNATiv profiling in Jurkat cells) EUB0000090b RPS6KA2; assay type: cell-based; settings: at 1 µM
[10] = molecular target: T2, Rhodopsin kinase GRK1 (Homo sapiens) (UniProt Q15835); assay: Selectivity interaction (KinomeScan (DiscoverX)) EUB0000045b GRK1
T2 sequence (whole entry): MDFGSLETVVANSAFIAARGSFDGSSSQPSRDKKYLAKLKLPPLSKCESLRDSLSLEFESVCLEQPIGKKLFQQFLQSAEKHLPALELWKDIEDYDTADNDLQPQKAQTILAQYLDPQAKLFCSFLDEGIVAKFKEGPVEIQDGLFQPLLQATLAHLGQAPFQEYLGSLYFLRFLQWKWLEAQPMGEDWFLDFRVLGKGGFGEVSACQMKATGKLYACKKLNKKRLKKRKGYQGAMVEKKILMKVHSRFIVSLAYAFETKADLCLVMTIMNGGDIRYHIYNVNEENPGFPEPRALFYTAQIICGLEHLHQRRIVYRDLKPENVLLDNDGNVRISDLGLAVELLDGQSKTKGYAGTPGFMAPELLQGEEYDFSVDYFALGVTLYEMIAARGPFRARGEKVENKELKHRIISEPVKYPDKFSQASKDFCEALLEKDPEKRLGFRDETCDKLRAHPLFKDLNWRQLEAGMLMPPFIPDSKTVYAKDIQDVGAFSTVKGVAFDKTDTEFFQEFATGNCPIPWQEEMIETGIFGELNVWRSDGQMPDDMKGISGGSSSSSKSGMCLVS

[11] = molecular target: Microtubule-associated serine/threonine-protein kinase 1 (Homo sapiens) (UniProt Q9Y2H9); assay: Selectivity interaction (KinomeScan (DiscoverX)) EUB0000618a MAST1; settings: at 10 µM
[12] = molecular target: Ribosomal protein S6 kinase alpha-3 (Homo sapiens, UniProt P51812); assay: Selectivity interaction (KinomeScan (DiscoverX)) EUB0000618a RPS6KA3; settings: at 10 µM
[13] = molecular target: Ribosomal protein S6 kinase alpha-1 (Homo sapiens, UniProt Q15418); settings: at 10 µM
[14] = molecular target: Tyrosine-protein kinase HCK (Homo sapiens) (UniProt P08631); assay: Selectivity interaction (Upstate Kinase Profiler service (Millipore)) EUB0000056c HCK; settings: at 1 µM
[15] = molecular target: Mitogen-activated protein kinase 6 (Homo sapiens) (UniProt Q16659); assay: Selectivity interaction (KinomeScan (DiscoverX)) EUB0000655a MAPK6; settings: at 10 µM
[16] = molecular target: T1, Dual specificity tyrosine-phosphorylation-regulated kinase 1B; assay: Selectivity interaction (SelectScreen profiling (Invitrogen)) EUB0000607a DYRK1B; settings: at 2 µM
[17] = molecular target: T3, Ephrin type-B receptor 4 (Homo sapiens) (UniProt P54760); assay: Selectivity interaction (SelectScreen profiling (Invitrogen)) EUB0000607a EPHB4; settings: at 2 µM
T3 sequence (whole entry): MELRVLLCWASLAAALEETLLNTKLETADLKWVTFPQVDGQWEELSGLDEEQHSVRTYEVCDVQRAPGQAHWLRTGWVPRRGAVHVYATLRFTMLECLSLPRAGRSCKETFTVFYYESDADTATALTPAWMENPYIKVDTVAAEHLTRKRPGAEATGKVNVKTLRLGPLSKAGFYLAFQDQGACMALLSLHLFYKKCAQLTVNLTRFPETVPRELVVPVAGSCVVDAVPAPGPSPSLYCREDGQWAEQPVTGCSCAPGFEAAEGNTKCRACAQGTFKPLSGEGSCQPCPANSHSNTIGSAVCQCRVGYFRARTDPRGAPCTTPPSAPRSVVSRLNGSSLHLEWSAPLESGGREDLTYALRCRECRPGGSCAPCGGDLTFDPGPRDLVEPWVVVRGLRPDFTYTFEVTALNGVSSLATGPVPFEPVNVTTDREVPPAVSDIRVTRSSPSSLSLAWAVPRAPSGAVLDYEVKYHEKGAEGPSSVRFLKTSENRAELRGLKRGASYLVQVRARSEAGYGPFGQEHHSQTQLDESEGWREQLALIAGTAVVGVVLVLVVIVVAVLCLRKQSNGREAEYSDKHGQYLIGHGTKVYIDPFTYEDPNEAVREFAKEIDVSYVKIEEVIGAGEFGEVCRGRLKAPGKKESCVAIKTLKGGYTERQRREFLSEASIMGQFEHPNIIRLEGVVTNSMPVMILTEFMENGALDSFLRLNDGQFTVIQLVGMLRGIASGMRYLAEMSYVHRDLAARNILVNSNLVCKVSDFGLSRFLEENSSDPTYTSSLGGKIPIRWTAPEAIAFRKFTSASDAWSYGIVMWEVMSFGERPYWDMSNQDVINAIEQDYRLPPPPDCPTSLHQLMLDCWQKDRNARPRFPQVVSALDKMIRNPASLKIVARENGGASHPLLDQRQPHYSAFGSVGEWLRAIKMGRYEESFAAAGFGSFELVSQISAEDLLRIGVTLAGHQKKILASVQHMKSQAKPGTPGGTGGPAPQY

T1 sequence (Q9Y463 whole entry, looked up): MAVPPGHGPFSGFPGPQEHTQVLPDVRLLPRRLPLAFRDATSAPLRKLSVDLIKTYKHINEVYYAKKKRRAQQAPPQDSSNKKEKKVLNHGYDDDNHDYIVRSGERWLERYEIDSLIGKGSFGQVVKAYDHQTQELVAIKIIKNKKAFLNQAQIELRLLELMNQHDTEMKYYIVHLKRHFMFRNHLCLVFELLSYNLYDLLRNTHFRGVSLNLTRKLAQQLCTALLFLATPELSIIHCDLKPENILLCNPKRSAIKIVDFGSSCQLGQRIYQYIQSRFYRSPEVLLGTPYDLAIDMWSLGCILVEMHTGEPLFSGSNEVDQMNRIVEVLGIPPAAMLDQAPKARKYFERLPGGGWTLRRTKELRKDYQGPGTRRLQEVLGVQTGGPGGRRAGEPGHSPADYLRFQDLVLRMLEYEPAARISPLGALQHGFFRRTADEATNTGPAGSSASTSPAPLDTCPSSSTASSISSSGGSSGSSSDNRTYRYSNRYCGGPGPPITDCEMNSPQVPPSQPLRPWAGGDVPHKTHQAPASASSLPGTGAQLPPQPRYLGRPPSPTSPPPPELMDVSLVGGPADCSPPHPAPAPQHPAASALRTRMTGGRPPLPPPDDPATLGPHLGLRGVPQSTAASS
Chain of Tyrosine-protein kinase HCK (Homo sapiens) (P08631 2-526 limits assumed): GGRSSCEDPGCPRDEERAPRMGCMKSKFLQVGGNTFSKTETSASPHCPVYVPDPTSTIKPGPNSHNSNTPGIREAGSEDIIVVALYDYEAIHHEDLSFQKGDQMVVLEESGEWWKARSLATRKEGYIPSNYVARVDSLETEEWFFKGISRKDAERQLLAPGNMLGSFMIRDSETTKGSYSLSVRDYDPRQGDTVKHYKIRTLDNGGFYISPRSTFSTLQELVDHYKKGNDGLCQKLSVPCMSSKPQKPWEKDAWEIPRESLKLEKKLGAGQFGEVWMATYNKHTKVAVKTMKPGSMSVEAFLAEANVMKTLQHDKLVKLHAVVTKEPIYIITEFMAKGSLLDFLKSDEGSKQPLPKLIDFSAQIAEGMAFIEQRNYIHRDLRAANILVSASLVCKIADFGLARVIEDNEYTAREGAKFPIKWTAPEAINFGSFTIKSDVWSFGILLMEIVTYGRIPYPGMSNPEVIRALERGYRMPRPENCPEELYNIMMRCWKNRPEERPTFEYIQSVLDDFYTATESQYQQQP
Chain of Ribosomal protein S6 kinase alpha-1 (Q15418 whole entry): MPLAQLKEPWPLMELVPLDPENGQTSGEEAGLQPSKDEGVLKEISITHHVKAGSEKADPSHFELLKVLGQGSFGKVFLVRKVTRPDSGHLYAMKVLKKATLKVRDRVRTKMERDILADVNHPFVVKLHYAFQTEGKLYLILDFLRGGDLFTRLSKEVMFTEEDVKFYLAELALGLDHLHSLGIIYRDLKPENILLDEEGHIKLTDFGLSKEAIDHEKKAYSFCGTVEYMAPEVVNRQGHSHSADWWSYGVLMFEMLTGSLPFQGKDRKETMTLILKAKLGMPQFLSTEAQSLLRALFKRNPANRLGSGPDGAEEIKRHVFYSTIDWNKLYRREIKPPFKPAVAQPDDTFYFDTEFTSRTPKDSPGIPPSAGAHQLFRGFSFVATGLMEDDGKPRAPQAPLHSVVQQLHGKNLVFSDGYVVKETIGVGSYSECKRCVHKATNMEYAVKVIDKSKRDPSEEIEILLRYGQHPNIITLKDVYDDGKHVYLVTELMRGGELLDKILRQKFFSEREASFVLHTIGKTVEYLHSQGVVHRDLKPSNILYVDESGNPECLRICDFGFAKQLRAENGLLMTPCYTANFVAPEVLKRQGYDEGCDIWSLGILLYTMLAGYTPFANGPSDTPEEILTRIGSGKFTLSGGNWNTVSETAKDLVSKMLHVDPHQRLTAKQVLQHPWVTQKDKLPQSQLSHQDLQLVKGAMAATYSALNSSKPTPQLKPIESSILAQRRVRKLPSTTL
Chain of Microtubule-associated serine/threonine-protein kinase 1 (Homo sapiens) (Q9Y2H9 whole entry, looked up): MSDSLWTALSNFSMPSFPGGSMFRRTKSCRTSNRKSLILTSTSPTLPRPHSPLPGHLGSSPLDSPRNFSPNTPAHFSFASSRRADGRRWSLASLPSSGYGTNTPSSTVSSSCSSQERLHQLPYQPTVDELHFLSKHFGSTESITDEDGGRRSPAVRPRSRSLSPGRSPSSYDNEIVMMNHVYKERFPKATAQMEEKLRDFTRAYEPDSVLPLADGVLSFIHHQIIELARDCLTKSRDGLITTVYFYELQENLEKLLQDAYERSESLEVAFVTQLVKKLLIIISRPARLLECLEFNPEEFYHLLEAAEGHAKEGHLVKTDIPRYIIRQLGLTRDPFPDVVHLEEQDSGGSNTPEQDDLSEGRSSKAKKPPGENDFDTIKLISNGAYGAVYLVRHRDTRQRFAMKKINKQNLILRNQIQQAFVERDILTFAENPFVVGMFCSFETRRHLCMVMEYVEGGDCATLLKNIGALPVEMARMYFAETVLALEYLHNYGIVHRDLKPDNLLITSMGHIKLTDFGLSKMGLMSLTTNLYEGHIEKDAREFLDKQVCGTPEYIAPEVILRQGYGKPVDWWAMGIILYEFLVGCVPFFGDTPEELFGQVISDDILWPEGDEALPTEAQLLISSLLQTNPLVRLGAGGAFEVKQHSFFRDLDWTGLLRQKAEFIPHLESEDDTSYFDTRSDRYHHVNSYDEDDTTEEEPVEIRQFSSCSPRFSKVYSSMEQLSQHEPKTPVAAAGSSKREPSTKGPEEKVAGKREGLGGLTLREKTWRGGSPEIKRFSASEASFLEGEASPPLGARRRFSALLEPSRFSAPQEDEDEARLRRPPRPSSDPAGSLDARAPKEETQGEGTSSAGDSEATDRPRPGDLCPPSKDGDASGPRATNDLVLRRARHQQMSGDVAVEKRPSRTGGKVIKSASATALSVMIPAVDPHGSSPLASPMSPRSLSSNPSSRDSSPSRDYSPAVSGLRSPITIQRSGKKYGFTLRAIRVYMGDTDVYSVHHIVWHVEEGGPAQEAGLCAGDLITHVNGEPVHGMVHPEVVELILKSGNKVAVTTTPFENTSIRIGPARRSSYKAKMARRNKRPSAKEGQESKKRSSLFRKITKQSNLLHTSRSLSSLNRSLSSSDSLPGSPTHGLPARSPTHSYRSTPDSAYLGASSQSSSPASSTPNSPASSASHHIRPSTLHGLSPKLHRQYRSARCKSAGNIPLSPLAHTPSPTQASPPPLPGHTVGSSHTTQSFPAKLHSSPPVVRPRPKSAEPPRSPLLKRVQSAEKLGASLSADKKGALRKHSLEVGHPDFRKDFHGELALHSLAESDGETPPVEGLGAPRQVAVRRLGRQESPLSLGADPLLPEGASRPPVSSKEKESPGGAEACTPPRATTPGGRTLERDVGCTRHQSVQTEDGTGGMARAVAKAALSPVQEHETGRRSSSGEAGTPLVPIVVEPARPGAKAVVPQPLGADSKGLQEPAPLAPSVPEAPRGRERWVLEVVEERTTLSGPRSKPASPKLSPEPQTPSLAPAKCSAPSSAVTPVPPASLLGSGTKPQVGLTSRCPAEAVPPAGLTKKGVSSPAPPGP
Chain of Macrophage colony-stimulating factor 1 receptor (Homo sapiens) (P07333 whole entry): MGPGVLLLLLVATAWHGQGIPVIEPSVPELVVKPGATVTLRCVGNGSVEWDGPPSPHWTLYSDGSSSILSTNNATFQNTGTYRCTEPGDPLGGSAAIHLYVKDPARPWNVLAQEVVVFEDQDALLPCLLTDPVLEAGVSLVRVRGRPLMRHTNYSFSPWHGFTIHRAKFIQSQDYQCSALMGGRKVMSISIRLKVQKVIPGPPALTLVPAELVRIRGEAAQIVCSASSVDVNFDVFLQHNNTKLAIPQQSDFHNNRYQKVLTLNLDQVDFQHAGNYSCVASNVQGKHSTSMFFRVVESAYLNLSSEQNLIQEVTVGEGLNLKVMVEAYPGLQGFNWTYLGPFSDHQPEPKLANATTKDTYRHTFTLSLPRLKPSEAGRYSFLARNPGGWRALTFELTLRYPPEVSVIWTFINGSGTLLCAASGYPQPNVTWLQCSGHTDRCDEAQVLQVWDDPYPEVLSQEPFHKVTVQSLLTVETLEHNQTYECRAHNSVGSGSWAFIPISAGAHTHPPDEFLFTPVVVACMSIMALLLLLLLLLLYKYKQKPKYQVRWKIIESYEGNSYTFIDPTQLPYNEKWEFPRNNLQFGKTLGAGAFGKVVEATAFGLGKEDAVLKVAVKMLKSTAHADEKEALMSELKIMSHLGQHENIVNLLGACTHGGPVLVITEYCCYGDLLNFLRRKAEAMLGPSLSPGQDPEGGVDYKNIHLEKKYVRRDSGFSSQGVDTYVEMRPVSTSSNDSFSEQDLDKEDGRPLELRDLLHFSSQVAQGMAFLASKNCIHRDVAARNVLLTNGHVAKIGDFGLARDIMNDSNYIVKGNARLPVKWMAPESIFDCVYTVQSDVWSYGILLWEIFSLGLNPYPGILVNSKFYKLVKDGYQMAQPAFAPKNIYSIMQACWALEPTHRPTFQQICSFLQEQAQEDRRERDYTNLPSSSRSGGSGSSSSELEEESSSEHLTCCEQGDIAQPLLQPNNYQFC

`O=C(NOC[C@H](O)CO)c1ccc(F)c(F)c1Nc1ccc(I)cc1F` gave a % of control [1] of 100%.

`COc1cc(N(C)c2ccnc3ccc(C(F)(F)F)cc23)cc(OC)c1OC` gave a % binding [2] of 98%.

`Nc1cnc(N2CCc3cc(S(=O)(=O)Nc4c(F)cc(Cl)cc4F)cc(N4CCCC4=O)c32)nc1` [TP-020n] gave a % of control [3] of 86% and a % of control [4] of 97%.

`CN(C)CC#Cc1ccc2[nH]c3c(c2c1)-c1nc(N)ncc1CCC3` showed a % of control [5] of 26%.

Compound `CCN(CC)CCCCNc1ncc2cc(-c3cc(OC)cc(OC)c3)c(NC(=O)NC(C)(C)C)nc2n1` has a % of control [6] of 21%.

With `CC[C@@H]1[C@H](F)C(=O)N[C@@H]1COc1nccc2cc(C(N)=O)c(OC)cc12` [ZIMLOVISERTIB] the % of inhibition [7] was -13.2%.

`CN(C)C/C=C/C(=O)Nc1ccc(C(=O)N2CCCC(Nc3ncc(Cl)c(-c4c[nH]c5ccccc45)n3)C2)cc1` (stereo not drawn) gave a % of control [8] of 86% and a % of control [9] of 88%.

`C=CC(=O)Nc1cc(-n2c(=O)ccc3cnc4ccc(-c5ccc(NS(C)(=O)=O)cc5)cc4c32)ccc1C` showed a % of control ([10]; at 1 µM) of 100% and a % of control ([10]; at 10 µM) of 99%.

`O[C@H]1CC[C@H](Nc2ncc3nc(Nc4c(F)cc(F)cc4F)n([C@H]4CCOC4)c3n2)CC1` gave a % of control [11] of 75% and a % of control [12] of 60%.

Compound `Cc1cc([C@@H](C)Nc2ccccc2C(=O)O)c2nc(N3CCOCC3)cc(=O)n2c1` [AZD-6482] has a % of control [13] of 73%.

With `Cc1ccc(-c2ccc3c(ccc4sc5c(c43)NC[C@@H](C)NC5=O)n2)cn1` the % of inhibition [14] was 46%.

Compound `CN(C)CCOc1ccc(-c2nc(-c3ccncc3)c(-c3ccc4c(c3)CC/C4=N\O)[nH]2)cc1` has a % of control [15] of 92%.

`CNC(=O)Nc1ccc(-c2nc(N3CC4CCC(C3)O4)c3cnn(C4CCC5(CC4)OCCO5)c3n2)cc1` gave a % of inhibition [16] of 2% and a % of inhibition [17] of -4%.
